Assay results as given in US10941158B2, “Pyrazole ACC inhibitors and uses thereof” (Gilead Apollo, LLC, priority 2015, dated 2021).
pIC50: −log10 of the molar value. Converted amounts (≈) assume the structure as drawn. Read-outs that look alike come from different tables or passages of the source.

How the values were obtained:
[1] = system: Phytophthora capsici (Pc); test: Growth inhibition assay of fungal pathogens; type: cell-based; details: for IC90: Phytophthora capsici, read-out: Concentration at 90% Inhibition Pc
Summary of the method: (§1)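 Percent growth inhibition was derived from 48 h OD600 and visual scores relative to 2% DMSO, with blank background subtraction. Fungi were grown from spores in 17% V8 liquid medium, R. solani from 1.5 mm plugs in ¼ PDB, with compound at final 50/10/2 or 2/0.4/0.08 ppm.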

[2] = system: Botrtyis cinerea (Bc); test: Growth inhibition assay of fungal pathogens; type: cell-based; details: 48 h, read-out: Concentration at 90% Inhibition Bc
Summary of the method: (§2)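 Spores of Fm, Bc and Dm were suspended in 17% V8 liquid medium, while Rs was inoculated as 1.5 mm mycelial plugs in ¼ PDB. Compounds were tested at final 50, 10 and 2 ppm or 2, 0.4 and 0.08 ppm. Percent growth inhibition at 48 h versus 2% DMSO came from OD600 and visual ratings.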

[3] = system: Rhizoctonia solani (Rs); test: Growth inhibition assay of fungal pathogens; type: cell-based; details: 48 h, read-out: Concentration at 90% Inhibition Rs
Summary of the method: as §2

[4] = system: Septoria tritici (St); test: Growth inhibition assay of fungal pathogens; type: cell-based; details: for IC90: Zymoseptoria tritici, read-out: Concentration at 90% Inhibition St
Summary of the method: as §1

[5] = system: Fusarium moniliforme (Fm); test: Growth inhibition assay of fungal pathogens; type: cell-based; details: for IC90: Fusarium verticillioides, 48 h, read-out: Concentration at 90% Inhibition Fm
Summary of the method: as §2

[6] = system: Collectotrichum graminicola (Cg); test: Growth inhibition assay of fungal pathogens; type: cell-based; details: 48 h, read-out: Concentration at 90% Inhibition Cg
Summary of the method: as §1

[7] = system: Diplodia maydis (Dm); test: Growth inhibition assay of fungal pathogens; type: cell-based; details: Stenocarpella maydis, 48 h, read-out: Concentration at 90% Inhibition Dm
Summary of the method: as §2

[8] = system: Fusarium virguliforme (Fv); test: Growth inhibition assay of fungal pathogens; type: cell-based; details: 48 h
Summary of the method: as §1

[9] = system: C. krusei ATCC 6258; test: Anti-Fungal (Candida) Activity Assay, broth microtiter MIC; type: cell-based; details: Pichia kudriavzevii, read-out: MIC C. krusei ATCC 6258
Summary of the method: (§3)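 Visual 48 h MIC endpoints are reported. Plates followed CLSI M27-A3 in RPMI 1640 plus MOPS.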

[10] = system: C. albicans ATCC 90028; test: as above; type: cell-based; details: read-out: MIC C. albicans ATCC 90028
Summary of the method: as §3

[11] = system: C. parapsilosis ATCC 22019; test: as above; type: cell-based; details: Lodderomyces parapsilosis, read-out: MIC C. parapsilosis ATCC 22019
Summary of the method: as §3

[12] = target: human (hACC2) ACC2 (Homo sapiens, UniProt O00763); test: In vitro Acetyl-CoA Carboxylase (ACC) inhibition assay (ADP-Glo), hACC2; type: biochemical
Description: The detailed procedure is as follows. […] 10 μL ADP glo reagent was added. […] 20 μL kinase detection reagent was added.
“NA” stands for “not assayed.”

[13] = target: fungal (fACC2) ACC2 (UniProt Q00955); details: read-out: fACC2 IC50; fungal ACC2, ADP-Glo
[14] = read-out: Concentration at 90% Inhibition Fv, Table 4b, 48 hours
[15] = Table 4a, 48 hours, read-out: Concentration at 90% Inhibition Fv
[16] = Table 4b, 48 hours, read-out: Concentration at 90% Inhibition Fv
[17] = ATCC6258, 3 replicates, MIC recorded at 48 h
[18] = ATCC90028, 3 replicates, MIC recorded at 48 h
[19] = ATCC22019, 3 replicates, MIC recorded at 48 h

Chain of human (hACC2) ACC2 (O00763 whole entry): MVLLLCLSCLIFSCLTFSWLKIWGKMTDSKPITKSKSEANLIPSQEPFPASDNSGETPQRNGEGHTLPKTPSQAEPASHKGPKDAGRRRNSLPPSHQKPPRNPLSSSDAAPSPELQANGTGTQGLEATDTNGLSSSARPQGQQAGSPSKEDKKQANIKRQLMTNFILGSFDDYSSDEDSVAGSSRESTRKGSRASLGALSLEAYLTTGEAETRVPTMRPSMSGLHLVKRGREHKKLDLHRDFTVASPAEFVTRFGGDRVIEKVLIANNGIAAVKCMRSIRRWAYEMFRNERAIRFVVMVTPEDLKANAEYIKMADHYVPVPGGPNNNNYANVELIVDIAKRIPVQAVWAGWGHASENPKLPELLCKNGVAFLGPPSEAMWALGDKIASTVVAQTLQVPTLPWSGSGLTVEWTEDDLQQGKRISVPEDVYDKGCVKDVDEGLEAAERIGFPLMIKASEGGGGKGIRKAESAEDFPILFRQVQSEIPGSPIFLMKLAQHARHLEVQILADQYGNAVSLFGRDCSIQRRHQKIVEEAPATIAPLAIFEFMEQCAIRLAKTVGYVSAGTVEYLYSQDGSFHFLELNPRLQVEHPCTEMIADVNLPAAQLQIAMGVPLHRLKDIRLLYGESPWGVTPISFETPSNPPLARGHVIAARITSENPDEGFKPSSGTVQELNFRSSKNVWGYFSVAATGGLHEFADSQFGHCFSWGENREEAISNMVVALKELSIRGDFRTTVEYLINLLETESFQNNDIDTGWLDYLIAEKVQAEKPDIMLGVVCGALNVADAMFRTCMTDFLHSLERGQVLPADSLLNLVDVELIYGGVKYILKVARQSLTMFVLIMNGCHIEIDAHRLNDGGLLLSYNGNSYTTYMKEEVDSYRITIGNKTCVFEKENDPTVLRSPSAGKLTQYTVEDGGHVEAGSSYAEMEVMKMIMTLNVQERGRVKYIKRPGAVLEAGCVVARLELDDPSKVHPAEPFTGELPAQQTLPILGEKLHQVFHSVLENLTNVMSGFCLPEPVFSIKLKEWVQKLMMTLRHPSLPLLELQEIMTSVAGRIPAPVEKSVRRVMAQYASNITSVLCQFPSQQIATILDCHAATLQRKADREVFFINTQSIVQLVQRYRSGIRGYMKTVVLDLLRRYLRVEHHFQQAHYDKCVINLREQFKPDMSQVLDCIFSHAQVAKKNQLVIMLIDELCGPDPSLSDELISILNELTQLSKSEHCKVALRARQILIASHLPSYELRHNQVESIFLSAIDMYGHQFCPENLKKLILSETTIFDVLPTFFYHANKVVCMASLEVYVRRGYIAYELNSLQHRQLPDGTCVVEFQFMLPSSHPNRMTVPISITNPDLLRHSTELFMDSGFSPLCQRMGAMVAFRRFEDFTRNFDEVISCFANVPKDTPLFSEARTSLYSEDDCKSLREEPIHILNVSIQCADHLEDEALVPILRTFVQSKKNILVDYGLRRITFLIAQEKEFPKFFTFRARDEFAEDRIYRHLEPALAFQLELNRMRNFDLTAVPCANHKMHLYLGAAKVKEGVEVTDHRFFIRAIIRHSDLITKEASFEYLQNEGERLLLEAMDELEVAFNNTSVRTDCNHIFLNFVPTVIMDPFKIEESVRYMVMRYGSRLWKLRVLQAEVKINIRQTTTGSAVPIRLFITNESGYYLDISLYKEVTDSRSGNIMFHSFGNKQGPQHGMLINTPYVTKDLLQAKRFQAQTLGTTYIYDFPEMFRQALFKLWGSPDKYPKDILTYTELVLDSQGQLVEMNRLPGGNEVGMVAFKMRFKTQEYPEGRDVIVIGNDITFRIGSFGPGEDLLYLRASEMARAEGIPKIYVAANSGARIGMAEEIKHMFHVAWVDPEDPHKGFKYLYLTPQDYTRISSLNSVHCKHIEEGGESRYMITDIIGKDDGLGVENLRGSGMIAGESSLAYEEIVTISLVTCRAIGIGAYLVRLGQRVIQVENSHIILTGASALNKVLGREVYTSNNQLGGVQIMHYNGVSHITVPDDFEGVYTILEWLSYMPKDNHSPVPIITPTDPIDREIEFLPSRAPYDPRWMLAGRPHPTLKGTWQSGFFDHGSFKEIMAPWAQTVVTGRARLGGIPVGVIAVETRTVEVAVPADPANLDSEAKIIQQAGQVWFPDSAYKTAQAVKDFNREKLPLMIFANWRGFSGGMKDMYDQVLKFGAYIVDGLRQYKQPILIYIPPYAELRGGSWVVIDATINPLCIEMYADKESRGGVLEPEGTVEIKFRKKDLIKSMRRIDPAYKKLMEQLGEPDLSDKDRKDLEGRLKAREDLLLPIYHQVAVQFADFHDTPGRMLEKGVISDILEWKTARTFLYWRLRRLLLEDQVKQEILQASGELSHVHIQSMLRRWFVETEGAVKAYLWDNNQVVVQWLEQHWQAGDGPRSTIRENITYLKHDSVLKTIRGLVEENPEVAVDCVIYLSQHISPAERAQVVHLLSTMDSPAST
Chain of fungal (fACC2) ACC2 (Q00955 whole entry): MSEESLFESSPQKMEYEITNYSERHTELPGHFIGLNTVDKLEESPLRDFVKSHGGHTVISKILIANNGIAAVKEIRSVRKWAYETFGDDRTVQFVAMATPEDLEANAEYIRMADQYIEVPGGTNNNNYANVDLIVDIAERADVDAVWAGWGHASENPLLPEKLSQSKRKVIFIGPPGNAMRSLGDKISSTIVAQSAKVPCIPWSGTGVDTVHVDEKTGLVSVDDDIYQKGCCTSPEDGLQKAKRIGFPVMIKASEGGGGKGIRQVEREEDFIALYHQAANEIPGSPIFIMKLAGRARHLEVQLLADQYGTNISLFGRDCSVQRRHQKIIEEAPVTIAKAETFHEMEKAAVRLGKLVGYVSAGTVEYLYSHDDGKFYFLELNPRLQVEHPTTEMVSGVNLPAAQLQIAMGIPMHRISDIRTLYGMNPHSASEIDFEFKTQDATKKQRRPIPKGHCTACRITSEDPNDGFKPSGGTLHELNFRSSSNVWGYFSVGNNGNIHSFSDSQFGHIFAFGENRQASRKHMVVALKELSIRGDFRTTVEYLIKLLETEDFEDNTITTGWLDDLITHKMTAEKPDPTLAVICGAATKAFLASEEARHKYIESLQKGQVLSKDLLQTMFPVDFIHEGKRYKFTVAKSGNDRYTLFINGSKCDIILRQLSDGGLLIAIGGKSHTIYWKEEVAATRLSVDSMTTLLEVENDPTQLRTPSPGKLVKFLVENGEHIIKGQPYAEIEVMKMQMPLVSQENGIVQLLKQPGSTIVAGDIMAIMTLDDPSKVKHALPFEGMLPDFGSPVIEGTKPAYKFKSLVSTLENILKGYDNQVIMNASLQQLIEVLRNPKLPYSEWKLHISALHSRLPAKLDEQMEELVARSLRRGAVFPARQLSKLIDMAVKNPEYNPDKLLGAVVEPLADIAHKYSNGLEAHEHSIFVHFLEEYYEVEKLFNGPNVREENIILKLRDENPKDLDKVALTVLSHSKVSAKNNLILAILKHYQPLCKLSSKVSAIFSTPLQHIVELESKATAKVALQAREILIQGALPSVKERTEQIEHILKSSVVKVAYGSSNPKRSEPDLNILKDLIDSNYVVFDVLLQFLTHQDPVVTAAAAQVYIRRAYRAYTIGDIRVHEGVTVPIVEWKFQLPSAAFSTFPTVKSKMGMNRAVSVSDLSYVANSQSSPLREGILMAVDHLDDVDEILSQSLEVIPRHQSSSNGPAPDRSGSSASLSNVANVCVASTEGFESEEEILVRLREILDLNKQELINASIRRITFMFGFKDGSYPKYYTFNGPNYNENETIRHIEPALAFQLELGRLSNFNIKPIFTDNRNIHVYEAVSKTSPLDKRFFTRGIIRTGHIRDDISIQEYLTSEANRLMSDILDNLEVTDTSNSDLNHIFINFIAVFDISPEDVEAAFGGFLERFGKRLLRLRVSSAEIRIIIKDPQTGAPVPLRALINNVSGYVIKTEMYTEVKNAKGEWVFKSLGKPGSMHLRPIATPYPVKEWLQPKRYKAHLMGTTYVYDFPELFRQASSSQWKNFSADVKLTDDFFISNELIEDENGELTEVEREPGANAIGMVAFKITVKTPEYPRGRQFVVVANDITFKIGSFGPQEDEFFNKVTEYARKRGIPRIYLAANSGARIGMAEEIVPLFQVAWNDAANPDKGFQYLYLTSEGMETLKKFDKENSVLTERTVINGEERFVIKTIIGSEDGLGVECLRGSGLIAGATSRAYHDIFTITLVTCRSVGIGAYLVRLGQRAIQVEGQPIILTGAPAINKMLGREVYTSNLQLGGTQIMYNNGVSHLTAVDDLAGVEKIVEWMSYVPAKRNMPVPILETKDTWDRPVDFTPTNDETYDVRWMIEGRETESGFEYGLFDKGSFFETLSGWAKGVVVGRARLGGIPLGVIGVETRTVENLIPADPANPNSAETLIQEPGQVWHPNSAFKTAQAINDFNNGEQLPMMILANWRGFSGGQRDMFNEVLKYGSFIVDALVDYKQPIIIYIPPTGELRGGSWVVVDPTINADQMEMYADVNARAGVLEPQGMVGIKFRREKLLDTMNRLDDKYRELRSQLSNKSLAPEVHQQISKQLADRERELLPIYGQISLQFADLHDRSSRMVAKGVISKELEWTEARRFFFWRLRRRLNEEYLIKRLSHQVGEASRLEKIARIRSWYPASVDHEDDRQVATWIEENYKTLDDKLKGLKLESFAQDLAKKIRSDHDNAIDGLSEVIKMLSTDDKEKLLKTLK

Structure (SMILES)	IC90 ([1]; 48 h, Table 4b) [µg/mL]	IC90 ([2]; Table 4a) [µg/mL]	IC90 ([2]; Table 4b) [µg/mL]	IC90 ([3]; Table 4a) [µg/mL]	IC90 ([3]; Table 4b) [µg/mL]	IC90 ([4]; 48 h, Table 4b) [µg/mL]	IC90 [5] [µg/mL]	IC90 ([6]; Table 4a) [µg/mL]	IC90 ([6]; Table 4b) [µg/mL]	IC90 ([7]; Table 4a) [µg/mL]	IC90 ([7]; Table 4b) [µg/mL]	pIC50 [12]	IC90 ([1]; Table 4a, 48 hours) [µg/mL]	Concentration at 90% Inhibition Pc ([1]; Table 4b, 48 hours)	Concentration at 90% Inhibition St ([4]; Table 4b, 48 hours)	IC90 ([4]; Table 4a, 48 hours) [µg/mL]	IC90 ([5]; Table 4a, 48 hours) [µg/mL]	IC90 ([5]; Table 4b, 48 hours) [µg/mL]	IC90 [8, 15] [µg/mL]	IC90 [8, 16] [µg/mL]	further results
COc1ccccc1[C@H](Cn1c(=O)n(C(C)(C)C(=O)N2CCCCC2)c(=O)c2c(C)c(-n3cccn3)sc21)OCC(C)C [Compound I-23, (R)-1-(2-isobutoxy-2-(2-methoxyphenyl)ethyl)-5-methyl-3-(2-methyl-1-oxo-1-(piperidin-1-yl)propan-2-yl)-6-(1H-pyrazol-1-yl)thieno[2,3-d]pyrimidine-2,4(1H,3H)-dione]	> 50	2 (≈ 3.29 µM)	2 (≈ 3.29 µM)	> 50	> 50	> 50	0.4 (≈ 0.658 µM)	> 50	10 (≈ 16.5 µM)	10 (≈ 16.5 µM)	2 (≈ 3.29 µM)	7.40 to 8.00									IC90 ([1]; 48 h, Table 4a): > 50 µg/mL; IC90 ([4]; 48 h, Table 4a): > 50 µg/mL; Concentration at 90% Inhibition Fm ([5]; Table 4b, 48 hours): A (“A” provided a compound concentration of 0.4 ppm at 90% inhibition of fungal pathogens); IC90 ([8]; read-out: Concentration at 90% Inhibition Fv, Table 4a, 48 hours): > 50 µg/mL; IC90 [8, 14]: > 50 µg/mL; MIC ([9]; ATCC6258, 48 h): 0.25 to 1 µg/mL (≈ 0.411 to 1.65 µM); MIC ([10]; ATCC90028, 48 h): 0.25 to 1 µg/mL (≈ 0.411 to 1.65 µM); MIC ([11]; ATCC22019, 48 h): 1.1 to 2 µg/mL (≈ 1.81 to 3.29 µM)
COc1ccc(F)cc1[C@H](Cn1c(=O)n(C(C)(C)C(N)=O)c(=O)c2c(C)c(-n3cccn3)sc21)OC1CCC(=O)CC1 [Compound I-25, (R)-2-(1-(2-(5-fluoro-2-methoxyphenyl)-2-((4-oxocyclo-hexyl)oxy)ethyl)-5-methyl-2,4-dioxo-6-(1H-pyrazol-1-yl)-1,4-dihydro-thieno[2,3-d]pyrimidin-3(2H)-yl)-2-methylpropanamide]		> 50	10 (≈ 16.7 µM)	> 50	> 50			> 50	> 50	> 50	> 50	8.00 to 8.52	> 50	D (“D” provided a compound concentration of >50 ppm at 90% inhibition of fungal pathogens)	D (“D” provided a compound concentration of >50 ppm at 90% inhibition of fungal pathogens)	> 50	10 (≈ 16.7 µM)	2 (≈ 3.35 µM)	> 50	> 50	MIC [9, 17]: 0.25 to 1 µg/mL (≈ 0.418 to 1.67 µM); MIC [10, 18]: 1.1 to 2 µg/mL (≈ 1.84 to 3.35 µM); MIC [11, 19]: 1.1 to 2 µg/mL (≈ 1.84 to 3.35 µM)
COc1ccc(F)cc1[C@H](Cn1c(=O)n(C(C)(C)C(=O)N2CCCC2)c(=O)c2c(C)c(-n3cccn3)sc21)OC1CCC(=O)CC1 [Compound I-27, (R)-1-(2-(5-fluoro-2-methoxyphenyl)-2-((4-oxocyclohexyl)oxy)ethyl)-5-methyl-3-(2-methyl-1-oxo-1-(pyrrolidin-1-yl)propan-2-yl)-6-(1H-pyrazol-1-yl)thieno[2,3-d]pyrimidine-2,4(1H,3H)-dione]		2 (≈ 3.07 µM)	2 (≈ 3.07 µM)	2 (≈ 3.07 µM)	2 (≈ 3.07 µM)			10 (≈ 15.3 µM)	2 (≈ 3.07 µM)	> 50	10 (≈ 15.3 µM)	7.40 to 8.00	> 50	D (“D” provided a compound concentration of >50 ppm at 90% inhibition of fungal pathogens)	D (“D” provided a compound concentration of >50 ppm at 90% inhibition of fungal pathogens)	> 50	0.4 (≈ 0.614 µM)	0.4 (≈ 0.614 µM)	10 (≈ 15.3 µM)	2 (≈ 3.07 µM)	MIC [9, 17]: 1.1 to 2 µg/mL (≈ 1.69 to 3.07 µM); MIC [10, 18]: 1.1 to 2 µg/mL (≈ 1.69 to 3.07 µM); MIC [11, 19]: 1.1 to 2 µg/mL (≈ 1.69 to 3.07 µM)
COc1ccc(F)cc1[C@H](Cn1c(=O)n(C(C)(C)C(=O)NC(C)C)c(=O)c2c(C)c(-n3cccn3)sc21)OCCO [Compound I-35, (R)-2-(1-(2-(5-fluoro-2-methoxyphenyl)-2-(2-hydroxy-ethoxy)ethyl)-5-methyl-2,4-dioxo-6-(1H-pyrazol-1-yl)-1,4-dihydrothieno[2,3-d]pyrimidin-3(2H)-yl)-N-isopropyl-2-methylpropanamide]		2 (≈ 3.4 µM)	2 (≈ 3.4 µM)	2 (≈ 3.4 µM)	2 (≈ 3.4 µM)			2 (≈ 3.4 µM)	2 (≈ 3.4 µM)	> 50	10 (≈ 17 µM)	7.40 to 8.00	> 50	D (“D” provided a compound concentration of >50 ppm at 90% inhibition of fungal pathogens)	D (“D” provided a compound concentration of >50 ppm at 90% inhibition of fungal pathogens)	> 50	0.4 (≈ 0.681 µM)	0.4 (≈ 0.681 µM)	2 (≈ 3.4 µM)	2 (≈ 3.4 µM)	pIC50 [13]: 8.52 to 9.22
COCCO[C@@H](Cn1c(=O)n(C(C)(C)C(=O)N2CCCC2)c(=O)c2c(C)c(-n3cccn3)sc21)c1cc(F)ccc1OC [Compound I-44, (R)-1-(2-(5-fluoro-2-methoxyphenyl)-2-(2-methoxy-ethoxy)ethyl)-5-methyl-3-(2-methyl-1-oxo-1-(pyrrolidin-1-yl)propan-2-yl)-6-(1H-pyrazol-1-yl)thieno[2,3-d]pyrimidine-2,4(1H,3H)-dione]			> 50		> 50				> 50		> 50	< 7.40						10 (≈ 16.3 µM)		10 (≈ 16.3 µM)	pIC50 [13]: 8.00 to 8.52; IC90 ([1]; Table 4b, 48 hours): > 50 µg/mL; IC90 ([4]; Table 4b, 48 hours): > 50 µg/mL
COc1ccc(F)cc1[C@@H](O)Cn1c(=O)n(C(C)(C)C(=O)NC(C)C)c(=O)c2c(C)c(-n3cccn3)sc21 [Compound I-86, (R)-2-(1-(2-(5-fluoro-2-methoxyphenyl)-2-hydroxyethyl)-5-methyl-2,4-dioxo-6-(1H-pyrazol-1-yl)-1,4-dihydrothieno[2,3-d]pyrimidin-3(2H)-yl)-N-isopropyl-2-methylpropanamide]	> 50		2 (≈ 3.68 µM)		0.4 (≈ 0.736 µM)	> 50	0.4 (≈ 0.736 µM)		2 (≈ 3.68 µM)		10 (≈ 18.4 µM)	8.00 to 8.52									IC90 [8, 14]: 0.4 µg/mL (≈ 0.736 µM); MIC ([9]; ATCC6258, 48 h): 1.1 to 2 µg/mL (≈ 2.02 to 3.68 µM); MIC ([10]; ATCC90028, 48 h): 1.1 to 2 µg/mL (≈ 2.02 to 3.68 µM); MIC ([11]; ATCC22019, 48 h): 0.25 to 1 µg/mL (≈ 0.46 to 1.84 µM)
